Measurements reported in ChEMBL document CHEMBL4152365, “Discovery of DS-6930, a potent selective PPARγ modulator. Part I: Lead identification” (Bioorg Med Chem, 2018).
≈ marks a conversion by molar mass, not a printed value.

Legend:
Rattus norvegicus [1] = assay: Glucose-lowering effect in Zucker diabetic fatty rat assessed as reduction in plasma glucose level at 3 mg/kg, po administered once daily for 14 days measured on day 14 post last dose relative to control; assay type: functional; set-up: scale not given: the % may be the effect or the level left
Rattus norvegicus [2] = assay: Toxicity in Zucker diabetic fatty rat assessed as body weight gain at 3 mg/kg, po administered once daily for 14 days relative to control; assay type: organism-based; conditions: in vivo, 336 h
Rattus norvegicus [3] = assay: Toxicity in Wistar-Imamichi rat assessed as death at 30 to 300 mg/kg, po administered via gavage once daily for 28 days; assay type: organism-based; conditions: in vivo, 672 h
Rattus norvegicus [4] = assay: Toxicity in Wistar-Imamichi rat assessed as clinical abnormality at 30 to 300 mg/kg, po administered via gavage once daily for 28 days; assay type: organism-based; conditions: in vivo, 672 h
Rattus norvegicus [5] = assay: Toxicity in Wistar-Imamichi rat assessed as reduction in RBC count at 30 to 300 mg/kg, po administered via gavage once daily for 28 days; assay type: organism-based; conditions: in vivo, 672 h
Rattus norvegicus [6] = assay: Toxicity in Wistar-Imamichi rat assessed as reduction in RBC count at 30 mg/kg, po administered via gavage once daily for 28 days relative to control; assay type: organism-based; set-up: scale not given: the % may be the effect or the level left; conditions: in vivo, 672 h
Rattus norvegicus [7] = assay: Toxicity in Wistar-Imamichi rat assessed as reduction in RBC count at 100 mg/kg, po administered via gavage once daily for 28 days relative to control; assay type: organism-based; set-up: scale not given: the % may be the effect or the level left; conditions: in vivo, 672 h
Rattus norvegicus [8] = assay: Toxicity in Wistar-Imamichi rat assessed as reduction in RBC count at 300 mg/kg, po administered via gavage once daily for 28 days relative to control; assay type: organism-based; set-up: scale not given: the % may be the effect or the level left; conditions: in vivo, 672 h
Rattus norvegicus [9] = assay: Toxicity in Wistar-Imamichi rat assessed as effect on hemodilution by measuring increase in heart weight at 30 to 300 mg/kg, po administered via gavage once daily for 28 days; assay type: organism-based; conditions: in vivo, 672 h
Rattus norvegicus [10] = assay: Toxicity in Wistar-Imamichi rat assessed as effect on hemodilution by measuring increase in heart weight at 100 mg/kg, po administered via gavage once daily for 28 days; assay type: organism-based; conditions: in vivo, 672 h
Rattus norvegicus [11] = assay: Toxicity in Wistar-Imamichi rat assessed as elevation in ALT activity at 30 to 300 mg/kg, po administered via gavage once daily for 28 days; assay type: organism-based; conditions: in vivo, 672 h
Rattus norvegicus [12] = assay: Toxicity in Wistar-Imamichi rat assessed as elevation in AST activity at 30 to 300 mg/kg, po administered via gavage once daily for 28 days; assay type: organism-based; conditions: in vivo, 672 h
[13] = Metabolic stability in rat liver microsomes after 0.5 hrs; assay type: ADME, microsome; conditions: read-out: Stability
[14] = Plasma concentration in hyperglycemic KK/Ta mouse at 30 mg/kg/day, po administered through diet for 3 days measured on day 3 post last dose; assay type: ADME, organism-based
Mus musculus [15] = assay: Toxicity in hyperglycemic KK/Ta mouse assessed as body weight gain at 30 mg/kg/day, po administered through diet for 3 days relative to control; assay type: organism-based; conditions: in vivo, 72 h
Mus musculus [16] = assay: Glucose-lowering effect in hyperglycemic KK/Ta mouse assessed as reduction in plasma glucose level at 30 mg/kg/day, po administered through diet for 3 days relative to control; assay type: functional; set-up: scale not given: the % may be the effect or the level left
[17] = target: T1, Peroxisome proliferator-activated receptor gamma (Homo sapiens, UniProt P37231); assay: Agonist activity at recombinant human GAL4-DBD fused PPARgamma LBD expressed in COS7 cells after 24 hrs by luciferase reporter gene assay; assay type: cell-based
T1 sequence (P37231 whole entry): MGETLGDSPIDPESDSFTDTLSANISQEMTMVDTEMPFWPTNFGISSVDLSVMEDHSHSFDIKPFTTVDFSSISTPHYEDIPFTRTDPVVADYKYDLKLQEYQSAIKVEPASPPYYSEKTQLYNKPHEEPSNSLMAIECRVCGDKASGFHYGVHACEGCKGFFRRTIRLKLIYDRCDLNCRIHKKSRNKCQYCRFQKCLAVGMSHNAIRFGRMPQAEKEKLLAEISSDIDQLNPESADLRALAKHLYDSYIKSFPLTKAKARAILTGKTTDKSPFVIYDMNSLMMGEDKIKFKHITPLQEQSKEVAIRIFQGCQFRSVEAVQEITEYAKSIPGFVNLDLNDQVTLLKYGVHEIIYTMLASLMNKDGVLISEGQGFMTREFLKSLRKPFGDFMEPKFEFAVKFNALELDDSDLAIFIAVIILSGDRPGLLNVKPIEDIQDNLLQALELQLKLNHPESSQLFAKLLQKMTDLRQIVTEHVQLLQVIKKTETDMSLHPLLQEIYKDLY

[18] = target: T2, Peroxisome proliferator-activated receptor gamma (Homo sapiens) (UniProt P37231); assay: Agonist activity at recombinant human GAL4-DBD fused PPARgamma LBD expressed in COS7 cells at 10 uM after 24 hrs by luciferase reporter gene assay relative to rosiglitazone; assay type: cell-based
T2 sequence (whole entry): T1 sequence (P37231 whole entry)

[19] = target: T3, Peroxisome proliferator-activated receptor alpha (Homo sapiens, UniProt Q07869); assay: Agonist activity at recombinant human GAL4-DBD fused PPARalpha LBD expressed in COS7 cells after 24 hrs by luciferase reporter gene assay; assay type: cell-based
T3 sequence (Q07869 whole entry): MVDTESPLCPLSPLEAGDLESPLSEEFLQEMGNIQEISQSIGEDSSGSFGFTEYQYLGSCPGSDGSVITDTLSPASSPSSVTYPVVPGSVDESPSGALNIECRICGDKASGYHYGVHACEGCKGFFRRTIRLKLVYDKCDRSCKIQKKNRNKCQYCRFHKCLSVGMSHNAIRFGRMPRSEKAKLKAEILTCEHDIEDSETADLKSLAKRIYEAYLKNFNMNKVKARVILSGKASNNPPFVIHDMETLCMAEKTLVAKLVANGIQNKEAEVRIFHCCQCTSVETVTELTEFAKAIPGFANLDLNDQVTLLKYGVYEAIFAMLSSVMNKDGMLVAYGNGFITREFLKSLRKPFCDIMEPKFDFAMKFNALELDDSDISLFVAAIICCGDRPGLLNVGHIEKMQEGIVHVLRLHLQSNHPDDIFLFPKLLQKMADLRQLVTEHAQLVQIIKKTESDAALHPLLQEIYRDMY

[20] = target: T4, Peroxisome proliferator-activated receptor alpha (Homo sapiens) (UniProt Q07869); assay: Agonist activity at recombinant human GAL4-DBD fused PPARalpha LBD expressed in COS7 cells at 10 uM after 24 hrs by luciferase reporter gene assay relative to 2-(4-tert-Butylphenoxy)-3-[4-[2-[(4-pyridin-2-ylbenzoyl)amino]ethoxy]; assay type: cell-based
T4 sequence (whole entry): T3 sequence (Q07869 whole entry)

[21] = 1-octanol/PBS distribution co-efficient, log D of the compound at […] at pH 7.4 after 30 mins by HPLC-MS/MS analysis; assay type: physicochemical
[22] = Aqueous thermodynamic solubility of the compound in pH 6.8 solution up to 4 hrs by HPLC-UV analysis; assay type: physicochemical; conditions: read-out: Therm_solubility
[23] = Metabolic stability in human liver microsomes after 0.5 hrs; assay type: ADME, microsome; conditions: read-out: Stability
[24] = Cmax in Zucker diabetic fatty rat at 3 mg/kg, po dosed once daily for 14 days and followed by additional administeration on day 15; assay type: ADME, organism-based; set-up: dose 3 mg/kg, route oral; conditions: in vivo
[25] = Tmax in Zucker diabetic fatty rat at 3 mg/kg, po dosed once daily for 14 days and followed by additional administeration on day 15; assay type: ADME, organism-based; conditions: in vivo
[26] = AUC (0 to 24 hrs) in Zucker diabetic fatty rat at 3 mg/kg, po dosed once daily for 14 days and followed by additional administeration on day 15; assay type: ADME, organism-based; set-up: dose 3 mg/kg, time < 24 hr, route oral; conditions: in vivo
[27] = Metabolic stability in cynomolgus monkey liver microsomes after 0.5 hrs; assay type: ADME, Macaca fascicularis, microsome; conditions: read-out: Stability
[28] = Cmax in cynomolgus monkey at 3 mg/kg, po by LC-MS/MS analysis; assay type: ADME, organism-based, Macaca fascicularis; set-up: dose 3 mg/kg, route oral; conditions: in vivo
[29] = Tmax in cynomolgus monkey at 3 mg/kg, po by LC-MS/MS analysis; assay type: ADME, organism-based, Macaca fascicularis; conditions: in vivo
[30] = Half life in cynomolgus monkey at 3 mg/kg, po by LC-MS/MS analysis; assay type: ADME, organism-based, Macaca fascicularis; conditions: in vivo
[31] = AUClast in cynomolgus monkey at 3 mg/kg, po by LC-MS/MS analysis; assay type: ADME, organism-based, Macaca fascicularis; set-up: dose 3 mg/kg, route oral, time 0 - last; conditions: in vivo
[32] = Oral bioavailability in cynomolgus monkey at 3 mg/kg by LC-MS/MS analysis; assay type: ADME, organism-based, Macaca fascicularis; conditions: in vivo
[33] = Clearance in cynomolgus monkey at 1 mg/kg, iv by LC-MS/MS analysis; assay type: ADME, organism-based, Macaca fascicularis; conditions: in vivo
[34] = Volume of distribution at steady state in cynomolgus monkey at 1 mg/kg, iv by LC-MS/MS analysis; assay type: ADME, organism-based, Macaca fascicularis; conditions: in vivo, read-out: Vdss

CN(CCOc1ccc(CC2SC(=O)NC2=O)cc1)c1ccccn1 (stereo unspecified) [ROSIGLITAZONE]
Activity (Rattus norvegicus [1]): 40.3% | Activity (Rattus norvegicus [2]): 12.6% | Activity (Rattus norvegicus [3]): Non-Toxic | Activity (Rattus norvegicus [4]): Non-Toxic | Activity (Rattus norvegicus [5]): Dose-dependent effect | Activity (Rattus norvegicus [6]): 5.9% | Activity (Rattus norvegicus [7]): 8.9% | Activity (Rattus norvegicus [8]): 14.2% | Activity (Rattus norvegicus [9]): Toxic | Activity (Rattus norvegicus [10]): 24.7% | Activity (Rattus norvegicus [11]): Non-Toxic | Activity (Rattus norvegicus [12]): Non-Toxic

Cn1c(COc2cccc(C(=O)O)c2)nc2ccc(Oc3cc(F)ccc3F)cc21
remaining at 0.5 h [13]: 95% | concentration at 72 h [14]: 700 ng/mL | Activity (Mus musculus [15]): 3.3% | Activity (Mus musculus [16]): 51.2% | EC50 [17]: 134 nM | Emax [18]: 79% | EC50 [19]: > 10000 nM | Emax [20]: 36% | logD at 0.5 h [21]: 1.9 | solubility thermodynamic at 4 h [22]: 5.7 µg/mL (≈ 13.9 µM) | remaining at 0.5 h [23]: 98% | Activity (Rattus norvegicus [1]): 61.2% | Activity (Rattus norvegicus [2]): 9.5% | Cmax [24]: 520 ng/mL | Tmax [25]: 2 h | AUC at 24 h [26]: 3870 ng·h/mL | remaining at 0.5 h [27]: 100% | Cmax [28]: 5630 ng/mL | Tmax [29]: 1 h | half-life [30]: 16.1 h | AUC(0-t) [31]: 40900 ng·h/mL | bioavailability [32]: 65% | clearance [33]: 0.8 mL/min/kg | Vd [34]: 0.39 L/kg
